From PubChem BioAssay AID330 (DTP/NCI, 2004)
Where “and” joins values, the source holds several entries; their conditions need not be identical. Equal values may be shown once. Inconclusive results and toxic doses are left out. The calls were made as follows: active = survival T/C of 150% or more; inactive = T/C below 125% in these data. Square brackets hold non-standard residues; d marks the D form. Peptide text beside a SMILES is read from it. Tyr(3,5-I2) = N[CH](Cc1cc(I)c(O)c(I)c1)C(=O)O

Test system: P388 leukemia ip, CD2F1 mice, survival T/C
Assay: NCI In Vivo Anticancer Drug Screen. Data for tumor model P388 Leukemia (intraperitoneal) in CD2F1 (CDF1) mice
Settings: endpoint: median survival time, higher = longer survival
Summary of the method: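 Mice carrying the transplanted tumor received test compound or vehicle. Survival was recorded in each group, and the value is the treated-group measurement divided by that of the vehicle-treated control group.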

[1] = dose: 50.0 mg/kg/injection, schedule: Q01DX005 (ip), vehicle: saline + Tween-80 + alcohol
[2] = dose: 50.0 mg/kg/injection, schedule: Q04DX003 (ip), vehicle: saline with Tween-80
[3] = dose: 150.0 mg/kg/injection, schedule: Q01DX009 (ip), vehicle: saline with Tween-80
[4] = dose: 60.0 mg/kg/injection, schedule: Q01DX005 (ip), vehicle: saline with Tween-80
[5] = dose: 120.0 mg/kg/injection, schedule: Q01DX005 (ip), vehicle: saline with Tween-80
[6] = dose: 240.0 mg/kg/injection, schedule: Q01DX005 (ip), vehicle: saline with Tween-80
[7] = dose: 50.0 mg/kg/injection, schedule: Q01DX005 (ip), vehicle: saline with Tween-80
[8] = dose: 100.0 mg/kg/injection, schedule: Q01DX005 (ip), vehicle: saline with Tween-80

Measured: T/C

O=C1OCC2OC(=O)c3cc(O)c(O)c(O)c3-c3c(O)c(O)c(O)c4c3C(=O)OC(C2OC(=O)c2cc(O)c(O)c(O)c2-c2c1cc(O)c(O)c2O)C1OC(=O)c2c-4c(O)c(O)c(O)c2C1O (stereo not drawn)
inactive: dose: 1.56 mg/kg/injection, schedule: Q01DX009 (ip), vehicle: saline 101 % of control | dose: 3.12 mg/kg/injection, schedule: Q01DX009 (ip), vehicle: saline 100 % of control | dose: 6.25 mg/kg/injection, schedule: Q01DX009 (ip), vehicle: saline 99 % of control and 88 % of control and 100 % of control | dose: 12.5 mg/kg/injection, schedule: Q01DX009 (ip), vehicle: saline 100 % of control

CCCCCCC(=O)/C=C/c1cccc(OCc2cccc(Cl)c2)c1
inactive: [1] 96 % of control | dose: 100.0 mg/kg/injection, schedule: Q01DX005 (ip), vehicle: saline + Tween-80 + alcohol 91 % of control | dose: 200.0 mg/kg/injection, schedule: Q01DX005 (ip), vehicle: saline + Tween-80 + alcohol 96 % of control

Nc1cccc(CC(=O)Nc2ccccc2)c1
inactive: dose: 100.0 mg/kg/injection, schedule: Q04DX002 (ip), vehicle: Klucel (hydroxypropylcellulose) (HPC) 100 % of control | dose: 200.0 mg/kg/injection, schedule: Q04DX002 (ip), vehicle: Klucel (hydroxypropylcellulose) (HPC) 97 % of control

Cn1c([N+](=O)[O-])cnc1/C=C1\CCc2cc(OCCN3CCCC3)ccc2C1=O
inactive: dose: 12.5 mg/kg/injection, schedule: Q01DX009 (ip), vehicle: saline with Tween-80 90 % of control | dose: 25.0 mg/kg/injection, schedule: Q01DX009 (ip), vehicle: saline with Tween-80 93 % of control

COc1ccc(C(=O)N2CC(O)=CC2=O)cc1
inactive: dose: 50.0 mg/kg/injection, schedule: Q01DX009 (ip), vehicle: Klucel (hydroxypropylcellulose) (HPC) 105 % of control | dose: 100.0 mg/kg/injection, schedule: Q01DX009 (ip), vehicle: Klucel (hydroxypropylcellulose) (HPC) 107 % of control | dose: 200.0 mg/kg/injection, schedule: Q01DX009 (ip), vehicle: Klucel (hydroxypropylcellulose) (HPC) 92 % of control

CC(=O)c1cc(C)[nH]c1C
inactive: dose: 37.5 mg/kg/injection, schedule: Q01DX009 (ip), vehicle: Klucel (hydroxypropylcellulose) (HPC) 103 % of control | dose: 50.0 mg/kg/injection, schedule: Q01DX009 (ip), vehicle: saline with Tween-80 100 % of control | [2] 100 % of control | dose: 75.0 mg/kg/injection, schedule: Q01DX009 (ip), vehicle: Klucel (hydroxypropylcellulose) (HPC) 103 % of control | dose: 100.0 mg/kg/injection, schedule: Q01DX009 (ip), vehicle: saline with Tween-80 113 % of control | dose: 100.0 mg/kg/injection, schedule: Q04DX003 (ip), vehicle: saline with Tween-80 109 % of control | dose: 150.0 mg/kg/injection, schedule: Q01DX009 (ip), vehicle: Klucel (hydroxypropylcellulose) (HPC) 103 % of control | [3] 105 % of control | dose: 200.0 mg/kg/injection, schedule: Q01DX009 (ip), vehicle: saline with Tween-80 113 % of control | dose: 200.0 mg/kg/injection, schedule: Q04DX003 (ip), vehicle: saline with Tween-80 109 % of control

CCOC(=O)n1c2ccccc2c(=O)n1CCO
inactive: [4] 105 % of control | [5] 97 % of control | [6] 91 % of control

C=C=CCN(C)Cc1ccccc1
inactive: dose: 25.0 mg/kg/injection, schedule: Q04DX002 (ip), vehicle: saline 106 % of control | dose: 50.0 mg/kg/injection, schedule: Q04DX002 (ip), vehicle: saline 93 % of control | dose: 100.0 mg/kg/injection, schedule: Q04DX002 (ip), vehicle: saline 100 % of control and 101 % of control

CC(C)=CC[P+](CC[P+](CC=C(C)C)(c1ccccc1)c1ccccc1)(c1ccccc1)c1ccccc1
inactive: dose: 6.25 mg/kg/injection, schedule: Q01DX005 (ip), vehicle: saline with Tween-80 98 % of control | dose: 12.5 mg/kg/injection, schedule: Q01DX005 (ip), vehicle: saline with Tween-80 98 % of control

COc1ccc2c(c1[N+](=O)[O-])CCCCC2=O
inactive: dose: 100.0 mg/kg/injection, schedule: Q01DX009 (sc), vehicle: olive oil, sesame oil, peanut oil 104 % of control | dose: 200.0 mg/kg/injection, schedule: Q01DX009 (sc), vehicle: olive oil, sesame oil, peanut oil 95 % of control | dose: 400.0 mg/kg/injection, schedule: Q01DX009 (sc), vehicle: olive oil, sesame oil, peanut oil 107 % of control

CCOC(=O)c1cnc(N)nc1CCC(=O)O
inactive: dose: 37.5 mg/kg/injection, schedule: Q01DX009 (ip), vehicle: saline with Tween-80 107 % of control | dose: 75.0 mg/kg/injection, schedule: Q01DX009 (ip), vehicle: saline with Tween-80 102 % of control | [3] 107 % of control

CC(=O)C1=CCC2C3=CCC4=CC(O)[C@@H](O)C[C@]4(C)C3C[C@@H](O)[C@]12C (stereo partly drawn)
inactive: dose: 0.94 mg/kg/injection, schedule: Q01DX005 (ip), vehicle: saline + alcohol 100 % of control | dose: 1.88 mg/kg/injection, schedule: Q01DX005 (ip), vehicle: saline + alcohol 108 % of control | dose: 3.75 mg/kg/injection, schedule: Q01DX005 (ip), vehicle: saline + alcohol 108 % of control | dose: 6.25 mg/kg/injection, schedule: Q01DX005 (ip), vehicle: saline + Tween-80 + alcohol 100 % of control | dose: 7.5 mg/kg/injection, schedule: Q01DX005 (ip), vehicle: saline + alcohol 104 % of control | dose: 12.5 mg/kg/injection, schedule: Q01DX005 (ip), vehicle: saline + Tween-80 + alcohol 112 % of control | dose: 25.0 mg/kg/injection, schedule: Q01DX005 (ip), vehicle: saline + Tween-80 + alcohol 109 % of control | [1] 118 % of control

Oc1ccc2ccccc2c1C=NCCS
inactive: [4] 87 % of control | [5] 87 % of control

CC(=O)C1CCN(CN2CCC(C(C)=O)CC2)CC1
inactive: dose: 25.0 mg/kg/injection, schedule: Q01DX005 (ip), vehicle: saline 101 % of control | dose: 50.0 mg/kg/injection, schedule: Q01DX005 (ip), vehicle: saline 110 % of control | dose: 100.0 mg/kg/injection, schedule: Q01DX005 (ip), vehicle: saline 97 % of control

Cc1ccc(S(=O)(=O)OC2COC(OCc3ccccc3)C(OS(=O)(=O)c3ccc(C)cc3)C2O)cc1 (stereo not drawn)
inactive: [7] 100 % of control | [8] 86 % of control

COc1cc2c(cc1OC)CN1CCc3cc(OC)c(OC)cc3C1C2 (stereo not drawn)
inactive: [7] 99 % of control | [8] 94 % of control | dose: 200.0 mg/kg/injection, schedule: Q01DX005 (ip), vehicle: saline with Tween-80 91 % of control

CC(C)[C@H]1OC(=O)C=C2[C@@]13O[C@@H]3[C@H]1OC(=O)[C@]3(C)C1[C@]2(C)CC[C@@H]3O (stereo partly drawn)
inactive: dose: 1.0 mg/kg/injection, schedule: Q01DX009 (ip), vehicle: saline with Tween-80 101 % of control | dose: 40.0 mg/kg/injection, schedule: Q01DX009 (ip), vehicle: saline with Tween-80 105 % of control

CC(C)C(C=O)C(O)(C(F)(F)F)C(F)(F)Cl (stereo not drawn)
inactive: dose: 12.5 mg/kg/injection, schedule: Q04DX003 (ip), vehicle: saline with Tween-80 100 % of control | dose: 25.0 mg/kg/injection, schedule: Q04DX003 (ip), vehicle: saline with Tween-80 90 % of control | [2] 95 % of control

CC1OC(C)(c2ccc(Cl)c(O)c2)OC1C (stereo not drawn)
inactive: [4] 100 % of control | [5] 102 % of control | [6] 102 % of control

O=c1n(-c2ccccc2)c(=O)n2n1C1C=CC2C23C=CC12CCCC3 (stereo not drawn)
inactive: dose: 100.0 mg/kg/injection, schedule: Q04DX003 (ip), vehicle: Klucel (hydroxypropylcellulose) (HPC) 96 % of control | dose: 200.0 mg/kg/injection, schedule: Q04DX003 (ip), vehicle: Klucel (hydroxypropylcellulose) (HPC) 96 % of control | dose: 400.0 mg/kg/injection, schedule: Q04DX003 (ip), vehicle: Klucel (hydroxypropylcellulose) (HPC) 96 % of control

Cn1nnc2c1CN=CN2
inactive: dose: 50.0 mg/kg/injection, schedule: Q01DX009 (ip), vehicle: saline 117 % of control | dose: 100.0 mg/kg/injection, schedule: Q01DX009 (ip), vehicle: saline 103 % of control | dose: 200.0 mg/kg/injection, schedule: Q01DX009 (ip), vehicle: saline 112 % of control

CC(=O)NC(Cc1ccccc1)C(=O)NC(Cc1cc(I)c(O)c(I)c1)C(=O)O (stereo not drawn) (Ac-Phe-[Tyr(3,5-I2)]-OH; configuration not given here)
inactive: dose: 50.0 mg/kg/injection, schedule: Q01DX005 (ip), vehicle: Klucel (hydroxypropylcellulose) (HPC) 93 % of control | dose: 100.0 mg/kg/injection, schedule: Q01DX005 (ip), vehicle: Klucel (hydroxypropylcellulose) (HPC) 107 % of control | dose: 200.0 mg/kg/injection, schedule: Q01DX005 (ip), vehicle: Klucel (hydroxypropylcellulose) (HPC) 99 % of control
